# Literature values, collected in patent US5399700A, “Method for preparing enteric-coated oral drugs containing acid-unstable compounds” (Sunkyong Industries Co., Ltd., priority 1991, dated 1995).
# Read-outs that look alike come from different tables or passages of the source.
# Columns and labels:
# [1] = Table 9
# [2] = not given; remark: listed apart in the source
smiles,measurement,setting,value
CC(C)CN [Isobutylamine],pKa,[1],10.42
CCCN [Propylamine],pKa,[1],10.57
CC(C)(C)N [Tert-butylamine],pKa,[1],10.87
CCCCN(CCCC)CCCC [Tributylamine],pKa,[1],10.87
COc1ccc2[nH]c([S+]([O-])Cc3ncc(C)c(OC)c3C)nc2c1 (stereo not shown) [omeprazole],half-life,medium of below pH 4,0.167 h
same,half-life,pH 6.8,18 h
same,half-life,pH 11,about 300 days
"OC[C@H]1O[C@@H]2O[C@H]3[C@H](O)[C@@H](O)[C@@H](O[C@H]4[C@H](O)[C@@H](O)[C@@H](O[C@H]5[C@H](O)[C@@H](O)[C@@H](O[C@H]6[C@H](O)[C@@H](O)[C@@H](O[C@H]7[C@H](O)[C@@H](O)[C@@H](O[C@H]1[C@H](O)[C@H]2O)O[C@@H]7CO)O[C@@H]6CO)O[C@@H]5CO)O[C@@H]4CO)O[C@@H]3CO [α-CD, α-cyclodextrin]",Ring-opening Half-life,[2]; 1n hcl,6.2 h
"OC[C@H]1O[C@@H]2O[C@H]3[C@H](O)[C@@H](O)[C@@H](O[C@H]4[C@H](O)[C@@H](O)[C@@H](O[C@H]5[C@H](O)[C@@H](O)[C@@H](O[C@H]6[C@H](O)[C@@H](O)[C@@H](O[C@H]7[C@H](O)[C@@H](O)[C@@H](O[C@H]8[C@H](O)[C@@H](O)[C@@H](O[C@H]1[C@H](O)[C@H]2O)O[C@@H]8CO)O[C@@H]7CO)O[C@@H]6CO)O[C@@H]5CO)O[C@@H]4CO)O[C@@H]3CO [β-CD, β-cyclodextrin]",Ring-opening Half-life,"[2]; 60° C., 1N HCl",5.4 h
OC[C@H]1O[C@@H]2O[C@H]3[C@H](O)[C@@H](O)[C@@H](O[C@H]4[C@H](O)[C@@H](O)[C@@H](O[C@H]5[C@H](O)[C@@H](O)[C@@H](O[C@H]6[C@H](O)[C@@H](O)[C@@H](O[C@H]7[C@H](O)[C@@H](O)[C@@H](O[C@H]8[C@H](O)[C@@H](O)[C@@H](O[C@H]9[C@H](O)[C@@H](O)[C@@H](O[C@H]1[C@H](O)[C@H]2O)O[C@@H]9CO)O[C@@H]8CO)O[C@@H]7CO)O[C@@H]6CO)O[C@@H]5CO)O[C@@H]4CO)O[C@@H]3CO [γ-CD],Ring-opening Half-life,"[2]; 60° C., 1N HCl",3.0 h
